From patent US11447466B2, “Substituted indole compounds useful as inhibitors of TLR7/8/9” (BRISTOL-MYERS SQUIBB COMPANY, priority 2017, dated 2022)

Experiments:
Assay type in all cases: cell-based
[1] = target: T1, human TLR9 (Homo sapiens, UniProt Q9NR96); test: TLR9 inhibition reporter assay (HEK-Blue SEAP reporter, ODN2006 stimulation); conditions: HEK-Blue cells overexpressing human TLR9, SEAP reporter, ODN2006 5 nM, 22 hour incubation
T1 construct: host or cells: HEK-Blue cells
T1 sequence (Q9NR96 26-1032): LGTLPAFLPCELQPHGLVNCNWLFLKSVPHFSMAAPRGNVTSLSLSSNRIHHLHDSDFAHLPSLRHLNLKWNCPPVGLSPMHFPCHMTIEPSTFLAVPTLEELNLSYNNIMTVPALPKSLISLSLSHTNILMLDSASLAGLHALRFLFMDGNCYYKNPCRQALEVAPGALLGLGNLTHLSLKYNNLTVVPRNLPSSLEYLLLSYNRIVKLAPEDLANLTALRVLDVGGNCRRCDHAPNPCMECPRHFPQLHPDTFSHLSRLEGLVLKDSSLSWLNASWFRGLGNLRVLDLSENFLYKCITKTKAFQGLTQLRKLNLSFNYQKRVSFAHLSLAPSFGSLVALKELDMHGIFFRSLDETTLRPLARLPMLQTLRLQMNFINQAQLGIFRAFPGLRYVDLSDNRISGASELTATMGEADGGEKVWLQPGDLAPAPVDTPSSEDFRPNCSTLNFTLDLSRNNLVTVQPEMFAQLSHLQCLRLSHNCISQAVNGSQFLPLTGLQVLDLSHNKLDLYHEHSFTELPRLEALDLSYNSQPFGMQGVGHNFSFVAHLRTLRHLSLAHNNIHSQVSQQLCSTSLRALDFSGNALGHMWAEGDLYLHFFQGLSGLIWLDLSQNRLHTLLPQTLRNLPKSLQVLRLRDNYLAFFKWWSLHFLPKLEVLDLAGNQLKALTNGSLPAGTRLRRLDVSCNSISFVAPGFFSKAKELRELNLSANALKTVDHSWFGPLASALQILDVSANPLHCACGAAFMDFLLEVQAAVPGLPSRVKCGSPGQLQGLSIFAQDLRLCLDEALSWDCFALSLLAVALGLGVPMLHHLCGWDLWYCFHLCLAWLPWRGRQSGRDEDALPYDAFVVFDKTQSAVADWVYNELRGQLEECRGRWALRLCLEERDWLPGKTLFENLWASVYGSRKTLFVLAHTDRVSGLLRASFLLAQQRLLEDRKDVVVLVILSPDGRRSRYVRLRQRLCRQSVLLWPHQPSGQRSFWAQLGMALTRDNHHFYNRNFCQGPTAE
How it was run: (§1)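 Compound treatment: 30 min, RT, 0.05 nM–50 μM final. Agonist: TLR7 gardiquimod 7.5 μM; TLR8 R848 15.9 μM; TLR9 ODN2006 5 nM. Incubation 22 h, 37 °C, 5% CO2. Readout SEAP, HEK-Blue Detection.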

[2] = target: T2, human TLR8 (Homo sapiens, UniProt Q9NR97); test: TLR8 inhibition reporter assay (HEK-Blue SEAP reporter, R848 stimulation); conditions: HEK-Blue cells overexpressing human TLR8, SEAP reporter, R848 15.9 μM, 22 hour incubation
T2 construct: host or cells: HEK-Blue cells
T2 sequence (Q9NR97 27-1041): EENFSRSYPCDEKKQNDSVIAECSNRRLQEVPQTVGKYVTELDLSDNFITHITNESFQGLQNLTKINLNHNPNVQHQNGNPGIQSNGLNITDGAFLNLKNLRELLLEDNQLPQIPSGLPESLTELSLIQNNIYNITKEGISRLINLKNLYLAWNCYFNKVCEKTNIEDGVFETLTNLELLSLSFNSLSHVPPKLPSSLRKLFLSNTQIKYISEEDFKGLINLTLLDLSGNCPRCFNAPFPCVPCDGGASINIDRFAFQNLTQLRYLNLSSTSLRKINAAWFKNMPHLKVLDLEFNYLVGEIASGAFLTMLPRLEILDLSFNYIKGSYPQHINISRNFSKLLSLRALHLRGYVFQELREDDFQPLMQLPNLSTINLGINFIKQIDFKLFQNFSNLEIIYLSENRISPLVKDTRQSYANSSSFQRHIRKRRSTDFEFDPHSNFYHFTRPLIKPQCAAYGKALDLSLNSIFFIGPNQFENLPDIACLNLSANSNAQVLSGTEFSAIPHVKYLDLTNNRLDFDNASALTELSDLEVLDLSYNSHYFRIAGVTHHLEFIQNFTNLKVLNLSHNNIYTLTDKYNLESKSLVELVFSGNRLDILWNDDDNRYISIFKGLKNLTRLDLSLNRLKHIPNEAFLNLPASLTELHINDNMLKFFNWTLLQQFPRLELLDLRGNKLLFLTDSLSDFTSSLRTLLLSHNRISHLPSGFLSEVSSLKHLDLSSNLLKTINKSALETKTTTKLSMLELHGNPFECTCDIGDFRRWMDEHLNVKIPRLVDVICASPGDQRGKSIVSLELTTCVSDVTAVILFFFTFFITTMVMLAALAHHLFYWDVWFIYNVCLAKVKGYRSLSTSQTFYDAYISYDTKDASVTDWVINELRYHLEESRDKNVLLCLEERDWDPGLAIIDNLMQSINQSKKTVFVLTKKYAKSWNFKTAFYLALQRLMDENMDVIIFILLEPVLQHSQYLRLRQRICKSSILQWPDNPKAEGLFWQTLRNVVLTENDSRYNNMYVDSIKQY
How it was run: as §1

[3] = target: T3, human TLR7 (Homo sapiens, UniProt Q9NYK1); test: TLR7 inhibition reporter assay (HEK-Blue SEAP reporter, gardiquimod stimulation); conditions: HEK-Blue cells overexpressing human TLR7, SEAP reporter, gardiquimod 7.5 μM, 22 hour incubation
T3 construct: host or cells: HEK-Blue cells
T3 sequence (Q9NYK1 27-1049): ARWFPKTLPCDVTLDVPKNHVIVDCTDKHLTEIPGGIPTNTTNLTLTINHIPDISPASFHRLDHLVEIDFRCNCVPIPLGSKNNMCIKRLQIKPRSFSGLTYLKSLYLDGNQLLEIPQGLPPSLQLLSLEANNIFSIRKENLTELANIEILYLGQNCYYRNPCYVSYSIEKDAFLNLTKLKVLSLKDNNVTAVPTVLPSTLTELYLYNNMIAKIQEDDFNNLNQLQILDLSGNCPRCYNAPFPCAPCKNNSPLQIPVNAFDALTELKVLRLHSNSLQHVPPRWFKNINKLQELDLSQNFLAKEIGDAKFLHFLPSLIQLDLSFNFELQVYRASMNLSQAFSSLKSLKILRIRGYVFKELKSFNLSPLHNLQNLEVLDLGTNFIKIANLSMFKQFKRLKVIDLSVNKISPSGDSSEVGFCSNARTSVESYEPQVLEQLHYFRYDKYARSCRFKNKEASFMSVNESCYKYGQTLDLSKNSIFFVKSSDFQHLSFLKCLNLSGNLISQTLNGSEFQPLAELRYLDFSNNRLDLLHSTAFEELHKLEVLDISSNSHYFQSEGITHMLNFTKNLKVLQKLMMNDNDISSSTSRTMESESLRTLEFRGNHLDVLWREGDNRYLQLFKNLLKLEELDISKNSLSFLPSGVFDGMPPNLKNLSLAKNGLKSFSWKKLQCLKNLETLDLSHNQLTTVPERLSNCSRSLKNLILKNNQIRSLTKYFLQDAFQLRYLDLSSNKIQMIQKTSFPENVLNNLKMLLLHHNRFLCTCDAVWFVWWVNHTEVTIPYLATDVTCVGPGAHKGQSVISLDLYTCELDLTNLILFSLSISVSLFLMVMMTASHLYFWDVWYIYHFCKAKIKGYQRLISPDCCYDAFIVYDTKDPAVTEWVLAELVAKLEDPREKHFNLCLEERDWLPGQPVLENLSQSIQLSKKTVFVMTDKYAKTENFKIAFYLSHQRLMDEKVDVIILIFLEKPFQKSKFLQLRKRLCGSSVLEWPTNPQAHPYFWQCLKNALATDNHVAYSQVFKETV
How it was run: as §1

Row | Compound | IC50 [1] | IC50 [2] | IC50 [3]
1 | COc1cc(-c2[nH]c3ccc(C4CCN(CC(C)(C)O)CC4)cc3c2C(C)C)c(C)n(C)c1=O [Example 318, 5-(5-(1-(2-hydroxy-2-methylpropyl)piperidin-4-yl)-3-isopropyl-1H-indol-2-yl)-3-methoxy-1,6-dimethylpyridin-2(1H)-one] | 3.43 µM | 22.3 nM | 361 nM
2 | Cc1cc(-c2[nH]c3ccc(C4CCN(C5CCC(F)(F)CC5)CC4)cc3c2C(C)C)cn(C)c1=O [Example 199, 5-(5-(1-(4,4-difluorocyclohexyl)piperidin-4-yl)-3-isopropyl-1H-indol-2-yl)-1,3-dimethylpyridin-2(1H)-one] | 1.55 µM | 4.2 nM | 1.9 nM
3 | Cc1c(-c2[nH]c3ccc(C4CCNCC4)cc3c2C(C)C)cn(C)c(=O)c1C#N [Example 24, 5-(3-isopropyl-5-(piperidin-4-yl)-1H-indol-2-yl)-1,4-dimethyl-2-oxo-1,2-dihydropyridine-3-carbonitrile] | 3.76 µM | 10.7 nM | 75.9 nM
4 | Cc1cc(-c2[nH]c3ccc(C4CCN(CC(C)(C)O)CC4)cc3c2C(C)C)cn(CC(C)C)c1=O [Example 328, 5-(5-(1-(2-hydroxy-2-methylpropyl)piperidin-4-yl)-3-isopropyl-1H-indol-2-yl)-1-isobutyl-3-methylpyridin-2(1H)-one] | 5.97 µM | 54.7 nM | 49.1 nM
5 | COc1cc(-c2[nH]c3ccc(C4CCNCC4)cc3c2C(C)C)c(C)n(C)c1=O [Example 28, 5-(3-isopropyl-5-(piperidin-4-yl)-1H-indol-2-yl)-3-methoxy-1,6-dimethylpyridin-2(1H)-one] | 1.21 µM | 174 nM | 207 nM
6 | Cc1c(-c2[nH]c3ccc(C4CCN(CC5COC5)CC4)cc3c2C(C)C)cn(C)c(=O)c1Cl [Example 92, 3-chloro-5-(3-isopropyl-5-(1-(oxetan-3-ylmethyl)piperidin-4-yl)-1H-indol-2-yl)-1,4-dimethylpyridin-2(1H)-one] | 8.51 µM | 2.8 nM | 3.2 nM
7 | CC(C)c1c(-c2cc(-c3cccnc3)c(=O)n(C)c2)[nH]c2ccc(C3CCN(CCO)CC3)cc12 [Example 236, 5-(5-(1-(2-hydroxyethyl)piperidin-4-yl)-3-isopropyl-1H-indol-2-yl)-1-methyl-[3,3′-bipyridin]-2(1H)-one] | 0.98 µM | 9.8 nM | 4.6 nM

Continued by falling IC50 [1], values first:

Row | IC50 [1] | IC50 [2] | IC50 [3] | Compound
8 | 8.75 µM | 10.4 nM | 20.6 nM | COCCOCCOCCN1CCC(c2ccc3[nH]c(-c4cn(C)c(=O)c(Cl)c4C)c(C(C)C)c3c2)CC1 [Example 98, 3-chloro-5-(3-isopropyl-5-(1-(2-(2-(2-methoxyethoxy)ethoxy)ethyl)piperidin-4-yl)-1H-indol-2-yl)-1,4-dimethylpyridin-2(1H)-one]
9 | 8.45 µM | 4.6 nM | 2.2 nM | Cc1cc(-c2[nH]c3ccc(C4CCN(CCCO)CC4)cc3c2C(C)C)cn(C)c1=O [Example 85, 5-(5-(1-(3-hydroxypropyl)piperidin-4-yl)-3-isopropyl-1H-indol-2-yl)-1,3-dimethylpyridin-2(1H)-one]
10 | 7.65 µM | 95.4 nM | 205 nM | CNC(=O)CN1CCC(c2ccc3[nH]c(-c4cc(OC)c(=O)n(C)c4C)c(C(C)C)c3c2)CC1 [Example 142, 2-(4-(3-isopropyl-2-(5-methoxy-1,2-dimethyl-6-oxo-1,6-dihydropyridin-3-yl)-1H-indol-5-yl)piperidin-1-yl)-N-methylacetamide]
11 | 3.07 µM | 0.9 nM | 15.6 nM | Cc1c(-c2[nH]c3ccc(C4CCN(C5CCOCC5)CC4)cc3c2C(C)C)cn(C)c(=O)c1C#N [Example 222, 5-(3-isopropyl-5-(1-(tetrahydro-2H-pyran-4-yl)piperidin-4-yl)-1H-indol-2-yl)-1,4-dimethyl-2-oxo-1,2-dihydropyridine-3-carbonitrile]
12 | 2.42 µM | 31.5 nM | 21.5 nM | C=Cc1cc(-c2[nH]c3ccc(C4CCN(CC(=O)N(C)C)CC4)cc3c2C(C)C)cn(C)c1=O [Example 352, 2-(4-(3-isopropyl-2-(1-methyl-6-oxo-5-vinyl-1,6-dihydropyridin-3-yl)-1H-indol-5-yl)piperidin-1-yl)-N,N-dimethylacetamide]
13 | 0.979 µM | 3.4 nM | 8.4 nM | Cc1cc(-c2[nH]c3ccc(C4CCNCC4)cc3c2C(C)C)c(C)n(C)c1=O [Example 3, 5-(3-isopropyl-5-(piperidin-4-yl)-1H-indol-2-yl)-1,3,6-trimethylpyridin-2(1H)-one]
14 | 0.177 µM | 1.3 nM | 1.3 nM | CNCCN1CCC(c2ccc3[nH]c(-c4cc(C)c(=O)n(C)c4)c(C(C)C)c3c2)CC1 [Example 176, 5-(3-isopropyl-5-(1-(2-(methylamino)ethyl)piperidin-4-yl)-1H-indol-2-yl)-1,3-dimethylpyridin-2(1H)-one]
